Patent US11021706B2, “Antisense antibacterial compounds and methods” (priority 2014, dated 2021)
{TEG} = triethylene glycol 5' moiety of the PMO, as defined in the publication

Experiments:
Klebsiella pneuomoniae = experiment: MIC of meropenem with added NDM-1-targeted PPMO; type: cell-based; conditions: without PPMO, data not shown
[1] = tested on: adeA-expressing Acinetobacter baumanii; experiment: MIC of gentamicin, tobramycin and tetracycline with added adeA-targeted PPMO (CLSI microdilution); type: cell-based; conditions: concentration dependent
B. multivorans = experiment: Aerosol PPMO in pulmonary infection model, lung burden; type: in vivo; conditions: single 300 μg aerosol dose 6 hours post-infection; CGD mice; 24 hours after infection
Procedure: Chronic granulomatous disease (CGD) mice were used as a Bcc infection model. An Aerogen nebulizer was used to deliver either scrambled (Scr) PPMO ([…]) or acpP PPMO (PPMO #15, Table 2C, 300 μg or 30 μg) as a one-time dose 6 hours post-infection. Mice were euthanized 24 hours after infection and lung burden was determined as CFU/g.
Delivering PPMOs directly to the lung in the setting of chronic pulmonary infections would be useful. Chronic granulomatous disease (CGD) mice were used as a Bcc infection model. These mice develop significant morbidity and mortality when infected with various Bcc strains. Mice were infected intranasally with a clinical B. multivorans isolate (FIG. 15). An Aerogen nebulizer was used to deliver either scrambled (Scr) PPMO (300 μg) or acpP PPMO (PPMO #15, 300 μg or 30 μg) as a one-time dose 6 hours post-infection. The acpP-targeted PPMO has the following sequence: GTCCATTACCC (SEQ ID NO: 25). The PPMO was conjugated at its 5′ end to the C-terminal β-alanine residue of (RFF)3RXB (SEQ ID NO: 41). Mice were euthanized 24 hours after infection and lung burden was determined. The single 300 μg dose of the acpP PPMO reduced the lung burden by 93% and was a statistically significant decrease. Aerosol delivery of PPMOs is a viable therapeutic strategy and importantly, this is the first time that nebulized delivery of Bcc PPMOs has been attempted.

B. cenocepacia K56-2 [2] = experiment: Bcc growth in artificial CF sputum; type: cell-based
Procedure: B. cenocepacia K56-2 was incubated alone or in the presence of either a scrambled sequence (Scr) placebo PPMO or acpP PPMO (PPMO #15, Table 2C) at 10 μM or 20 μM concentration. Media or PPMO was dosed at 2, 8 and 12 hours. Samples were plated at 24 hours and CFU/ml was determined.
PPMOs were tested to determine whether they retained their activity in sputum. Using a well-described method for making “artificial CF sputum,” experiments were conducted to see whether a PPMO could reduce the burden of Bcc in this environment (FIG. 12). B. cenocepacia K56-2 was incubated alone or in the presence of either a scrambled-sequence (Scr) placebo PPMO or acpP PPMO (PPMO #15). The acpP-targeted PPMO has the following sequence: GTCCATTACCC (PPMO #15; SEQ ID NO: 25). The PPMO was conjugated at its 5′ end to the C-terminal β-alanine residue of (RFF)3RXB (SEQ ID NO: 41). Media or PPMO was dosed at 2, 8 and 12 hours. Samples were plated at 24 hours and CFU/ml was determined. The acpP PPMO was able to reduce the organism burden (both at 10 and 20 μM dosing). At 10 μM dosing, there was an approximately 2-log reduction in CFU/ml by 24-hours compared to no treatment control. At 20 μM dosing, there was a >3-log reduction seen. This reduction was apparent as early as 8 hours in the 20 μM group and 12 hours in the 10 μM group. These experiments indicate that PPMOs remain active even in the thick viscous sputum that is seen in CF patients. This is the first time that activity of PPMOs has been tested in sputum.

39 Bcc clinical isolates = experiment: PPMO MIC against a panel of 39 Bcc clinical isolates; type: cell-based, Burkholderia cepacia complex; conditions: panel of 39 isolates; FIG. 10
Procedure: A variety of Bcc isolates were tested, including clinical isolates obtained from various body sites with varying levels of antibiotic resistance. The strain bank included 39 isolates that comprised the most frequently encountered species that have been reported to cause human disease. […] All 6 of these PPMOs targeted AcpP (an acyl carrier protein associated with fatty acid biosynthesis). Differences in the 6 PPMOs related to alternative positioning sites on the target mRNA.

B. cenocepacia J2315 = experiment: MBEC peg biofilm assay, crystal violet and confocal microscopy; type: cell-based; conditions: 10 μM
Procedure: B. cenocepacia J2315 was grown utilizing MBEC biofilm assay plates for 48 hours in the presence of either acpP PPMO (10 μM), scrambled PPMO (10 μM), peptide or media alone. Biofilm production was measure utilizing a crystal violet method.
The pegs were moved to fresh media containing either nothing, the Scrambled (Scr) control PPMO at 10 μM concentration, or the acpP PPMO at 10 μM concentration. The MBEC pegs were incubated for another 48 hours and then stained with fluorescent green peanut-agglutinin stain for the biofilm and imaged on confocal microscopy.
The formation of biofilm is a significant virulence trait and is utilized by both P. aeruginosa and the Bcc. Bcc biofilms were grown and PPMOs were tested for their ability to both prevent biofilm formation and to deconstruct existing biofilms. B. cenocepacia J2315 (a genome sequenced, epidemic CF isolate) was grown utilizing MBEC biofilm assay plates which contain a peg that grows reproducible biofilms from day to day. J2315 was grown for 48 hours in the presence of either acpP PPMO (10 μM), scrambled PPMO (10 μM), peptide or media alone (FIG. 13). The acpP-targeted PPMO (PPMO #19) has the following sequence: CCATTACCCCT (SEQ ID NO: 27). The PPMO was conjugated at its 5′ end to the beta-alanine residue of (RFF)3RXB (SEQ ID NO: 41). Biofilm production was measured utilizing a crystal violet method. […]

B. cenocepacia K56-2 [3] = experiment: 24 hour growth with acpP PPMOs (bactericidal test); type: cell-based; conditions: 16 μM, FIG. 11 Panel A
Procedure: (§1) Two different isolates of B. cenocepacia were incubated for 24 hours in the presence or absence of different acpP PPMOs. All three acpP PPMOs caused a significant reduction of growth in the clinical CF isolate B. cenocepacia K56-2 (Panel A) and this effect was also seen for the pan-resistant strain B. cenocepacia H14277 (Panel B).
(§2) Many members of the Bcc are intrinsically antibiotic resistant making treatment difficult. B. cenocepacia is one of the most common species encountered by cystic fibrosis (CF) patients. Two different isolates of B. cenocepacia were incubated for 24 hours in the presence or absence of different acpP PPMOs (FIG. 11).

B. cenocepacia HI4277 = experiment: 24 hour growth with acpP PPMOs (bactericidal test), pan-resistant strain; type: cell-based; conditions: FIG. 11 Panel B
Procedure: as §1, §2

B. cenocepacia H14277 = experiment: PPMO MIC, pan-resistant strain (FIG. 10); type: cell-based
Procedure: In B. cenocepacia K56-2 (a genome-sequenced clinical CF isolate; Panel A) all three PPMOs caused a significant reduction of growth with one PPMO (PPMO #19; SEQ ID NO: 27; 16 μM) causing>3-log reduction of growth compared to the starting inoculum, a strong bactericidal effect. Importantly, this effect was seen even in pan-resistant strains of B. cenocepacia (HI4277, a pan-resistant outbreak isolate from CF patients; FIG. 11, Panel B). […] The MIC of PPMO #19 was 8 μM in H14277 (FIG. 10), illustrating that PPMOs' ability to inhibit growth is not dependent on the underlying level of antibiotic resistance in any particular strain, an important finding with positive implications for this approach.

C[C@@H](O)[C@H]1C(=O)N2C(C(=O)O)=C(S[C@@H]3CN[C@H](C(=O)N(C)C)C3)[C@H](C)[C@H]12 [meropenem]
MIC (Klebsiella pneuomoniae): ~64 µM

PPMO #5: adeA-targeted PMO ATA CTG TCC AA (SEQ ID NO: 15); 5′ TEG; 3′ (RXR)4XB- peptide (antisense ATACTGTCCAA; all phosphorodiamidate morpholino (PMO), 5' {TEG}; 3' end conjugated to (RXR)4XB peptide via beta-alanine)
MIC of gentamicin ([1]; FIG. 2): significantly reduced | MIC of tobramycin ([1]; FIG. 3): significantly reduced | MIC of tetracycline ([1]; FIG. 4): significantly reduced

PPMO #15: acpP-targeted PMO GTCCATTACCC (SEQ ID NO: 25); 5′ (RFF)3RXB- peptide; 3′ H (all phosphorodiamidate morpholino (PMO); 5' end conjugated to (RFF)3RXB peptide via beta-alanine, further chemistry not fully specified)
reduced the lung burden (B. multivorans): 93% | reduction in CFU/ml compared to no treatment control (B. cenocepacia K56-2 [2]; 10 μM dosing at 2, 8 and 12 hours, by 24-hours): approximately 2 log | time at which the reduction was apparent (B. cenocepacia K56-2 [2]; 10 μM group): 12 h | reduction in CFU/ml compared to no treatment control (B. cenocepacia K56-2 [2]; 20 μM dosing at 2, 8 and 12 hours, 24 hours): > 3 log | time at which the reduction was apparent (B. cenocepacia K56-2 [2]; 20 μM group): 8 h

PPMO #19: acpP-targeted PMO CCATTACCCCT (SEQ ID NO: 27); 5′ (RFF)3RXB- peptide; 3′ H (all phosphorodiamidate morpholino (PMO); 5' end conjugated to (RFF)3RXB peptide via beta-alanine, further chemistry not fully specified)
IC75 (39 Bcc clinical isolates): 4 µM | reduced biofilm formation compared to controls (B. cenocepacia J2315; 48 hours, crystal violet, FIG. 13): > 50% | amount of existing biofilm present (B. cenocepacia J2315; 48 h biofilm then 48 hours more, confocal microscopy and crystal violet, FIG. 14C): significantly reduced | reduction of growth compared to the starting inoculum (B. cenocepacia K56-2 [3]): > 3 log | bactericidal effect (B. cenocepacia HI4277): bactericidal | MIC (B. cenocepacia H14277): 8 µM
